Data from publication PMC3561686 (Basic & Clinical Pharmacology & Toxicology, 2012).
Like-named read-outs stand apart in the source and are kept apart here.

Legend:
[1] = for Cmax: human, in vivo, prasugrel alone session, dried blood spots, mean (S.D.); for AUC ratio (prasugrel + ritonavir versus prasugrel alone): AUC0–6 hr; for AUC ratio (prasugrel + ritonavir versus prasugrel alone) / Cmax ratio (prasugrel + ritonavir versus prasugrel alone): mean ratio
CYP2C9 = CYP2C9 (Homo sapiens, UniProt P11712); conditions: mean ratio
Chain of CYP2C9 (P11712 whole entry): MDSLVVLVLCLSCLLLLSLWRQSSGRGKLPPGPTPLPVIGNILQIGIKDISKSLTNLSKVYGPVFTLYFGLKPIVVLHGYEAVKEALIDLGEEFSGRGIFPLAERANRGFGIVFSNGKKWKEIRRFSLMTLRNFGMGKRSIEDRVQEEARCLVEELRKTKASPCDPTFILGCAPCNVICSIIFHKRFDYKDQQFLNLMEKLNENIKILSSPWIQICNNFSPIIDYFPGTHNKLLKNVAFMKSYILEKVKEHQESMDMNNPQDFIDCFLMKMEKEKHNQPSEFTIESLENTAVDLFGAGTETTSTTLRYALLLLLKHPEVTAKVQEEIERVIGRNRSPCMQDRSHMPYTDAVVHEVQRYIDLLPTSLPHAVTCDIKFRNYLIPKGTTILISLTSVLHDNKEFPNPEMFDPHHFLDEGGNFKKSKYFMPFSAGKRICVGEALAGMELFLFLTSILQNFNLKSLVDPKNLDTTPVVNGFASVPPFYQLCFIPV

CYP2C19 = CYP2C19 (Homo sapiens, UniProt P33261); experiment: CYP2C19 phenotyping: omeprazole metabolic ratio in plasma; assay type: in vivo; conditions: mean ratio
Chain of CYP2C19 (P33261 whole entry): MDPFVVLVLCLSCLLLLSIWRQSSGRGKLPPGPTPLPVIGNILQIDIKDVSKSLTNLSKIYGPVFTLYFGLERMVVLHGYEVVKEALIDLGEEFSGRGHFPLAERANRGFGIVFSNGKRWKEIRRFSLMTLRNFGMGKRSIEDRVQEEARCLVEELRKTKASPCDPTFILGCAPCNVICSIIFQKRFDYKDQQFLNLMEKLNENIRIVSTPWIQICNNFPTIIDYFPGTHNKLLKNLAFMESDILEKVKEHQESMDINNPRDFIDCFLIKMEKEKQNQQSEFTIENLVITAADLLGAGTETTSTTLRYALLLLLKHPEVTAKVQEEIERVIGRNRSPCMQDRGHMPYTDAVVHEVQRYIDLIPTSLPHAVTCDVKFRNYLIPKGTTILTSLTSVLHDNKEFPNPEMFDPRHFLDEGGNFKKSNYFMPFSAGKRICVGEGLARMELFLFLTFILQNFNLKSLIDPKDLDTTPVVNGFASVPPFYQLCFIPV

CYP3A = conditions: cited from earlier work
[2] = read-out: expected Cmax; after a 100 mg dose; cited from earlier work
human liver microsomes = conditions: cited from earlier work

Row | SMILES | Cmax [1] | AUC ratio (prasugrel + ritonavir versus prasugrel alone) [1] | Cmax ratio (prasugrel + ritonavir versus prasugrel alone) [1] | also measured
1 | CC(NC(C)(C)C)C(=O)c1cccc(Cl)c1 (centres unmarked) [Bupropion, bupropion] | 0.0209 µg/mL |  |  | 
2 | CC(C(=O)O)c1ccc(-c2ccccc2)c(F)c1 (centres unmarked) [Flurbiprofen, flurbiprofen] | 1.14 µg/mL | 0.95 | 0.98 | Metabolic Ratio (OH flurbiprofen/flurbiprofen), ratio prasugrel + ritonavir versus prasugrel alone (CYP2C9): not affected
3 | Cc1ncc2n1-c1ccc(Cl)cc1C(c1ccccc1F)=NC2 [Midazolam, midazolam] | 0.00017 µg/mL | 26.5 | 6.1 | AUC ratio (prasugrel + ritonavir versus prasugrel alone) ([1]; listed as midazolam): 26; Cmax ratio (prasugrel + ritonavir versus prasugrel alone) ([1]; listed as midazolam): 6
4 | COc1ccc2[nH]c([S+]([O-])Cc3ncc(C)c(OC)c3C)nc2c1 (centres unmarked) [Omeprazole, omeprazole] | 0.0356 µg/mL | 1.25 | 1.54 | Metabolic Ratio (OH omeprazole/omeprazole), ratio prasugrel + ritonavir versus prasugrel alone (CYP2C19): not affected
5 | CC(=O)N1CCN(c2ccc(OCC3COC(Cn4ccnc4)(c4ccc(Cl)cc4Cl)O3)cc2)CC1 (centres unmarked) [ketoconazole] |  |  |  | Change in prasugrel AM formation or the inhibition of platelet aggregation when prasugrel was administered with the drug (CYP3A): no change
6 | CC(C)c1nc(CN(C)C(=O)N[C@H](C(=O)N[C@@H](Cc2ccccc2)C[C@H](O)[C@H](Cc2ccccc2)NC(=O)OCc2cncs2)C(C)C)cs1 [ritonavir] |  |  |  | Cmax [2]: 1 to 2 µM; Inhibition of prasugrel bioactivation (human liver microsomes): potent inhibitor
